One assay deals with SK-OV-3. The experiment in a line: Cytotoxicity against human SKOV3 cells after 48 hrs by Neutral red assay. The class given is functional, cell-based.
The subject of a further assay is SK-MEL. The experiment in a line: Cytotoxicity against human SK-MEL cells after 48 hrs by Neutral red assay. The format is functional, cell-based.
In another assay the test system is BT-549. The assay can be described thus: Cytotoxicity against human BT549 cells after 48 hrs by Neutral red assay. The format is functional, cell-based.
Another assay deals with Vero. The assay can be described thus: Cytotoxicity against african green monkey Vero cells after 48 hrs by Neutral red assay. The format is cell-based, Chlorocebus sabaeus.
For the next assay, the system named is Staphylococcus aureus. The assay can be described thus: Antimicrobial activity against methicillin resistant Staphylococcus aureus ATCC 43300. The format is functional, organism-based.
In assay [1] the test system is Mycobacterium intracellulare. The assay can be described thus: Antimicrobial activity against […] Mycobacterium intracellular ATCC 23068. The format is functional, organism-based.
The mark [2] stands for this setting: Homo sapiens, SK-OV-3, 48 h, read-out: IC50.
Where [3] appears, read: Homo sapiens, SK-MEL, 48 h, read-out: IC50.
Where [4] appears, read: Homo sapiens, BT-549, 48 h, read-out: IC50.
Setting [5] is: Chlorocebus sabaeus, Vero, 48 h, read-out: IC50.
Where [6] appears, read: Mycobacterium intracellulare, ATCC 23068, read-out: IC50.
The mark [7] stands for this setting: Staphylococcus aureus, ATCC 43300, read-out: IC50.

The IC50 is the concentration that inhibits the measured activity by half.

As for `CC(=O)O[C@@H]1OC=C2[C@@H](OC(C)=O)C[C@H]3[C@]4(C)CC[C@H]5C(C)(C)CCC[C@]5(C)[C@H]4C[C@@H](O)[C@]3(C)[C@H]21` [HETERONEMIN], the concentration for half-maximal inhibition (IC50) with SK-OV-3 (setting [2]) is 3.4 µM; in the assay with SK-MEL (setting [3]) it was 15.3 µM; with BT-549 (setting [4]) it was 11.2 µM; with Vero (setting [5]) it was 8.2 µM; in the assay with Staphylococcus aureus, “Not Active”; in assay [1] (setting [6]), 2.04 µM.
Take `CC1(C)CCC[C@]2(C)[C@H]3C[C@@H](O)[C@]4(C)[C@@H](C=O)C(C=O)=CC[C@H]4[C@]3(C)CC[C@@H]12`: the IC50 in the assay on SK-OV-3 (setting [2]) was found to be 31 µM; with SK-MEL (setting [3]), 26.4 µM; in the assay with BT-549 (setting [4]) it was 19.4 µM; in the assay with Vero (setting [5]), 19.4 µM; with Staphylococcus aureus (setting [7]), 22 µM; in assay [1] (setting [6]), 38.8 µM.
Turning to `CC(=O)O[C@H]1C[C@H]2[C@]3(C)CC[C@H]4C(C)(C)CCC[C@]4(C)[C@H]3C[C@@H](O)[C@]2(C)c2cocc21` [SCALARAFURAN], the IC50 result (in the assay with SK-OV-3 (sk-ov-3); in the assay on SK-MEL (sk-mel); in the assay with BT-549 (bt-549); in the assay on Vero (vero); in the assay with Staphylococcus aureus; in assay [1]) was “Not Active” each time.
Regarding `CO[C@H]1O[C@@H](OC)[C@H]2C1=CC[C@H]1[C@]3(C)CC[C@H]4C(C)(C)CCC[C@]4(C)[C@H]3C[C@@H](O)[C@]21C`, the half-maximal inhibitory concentration (IC50) entry (in the assay on SK-OV-3 (sk-ov-3); in the assay on SK-MEL (sk-mel); in the assay with BT-549 (bt-549); with Vero (vero); with Staphylococcus aureus; in assay [1]) was “Not Active” in each case.
Turning to `CC1(C)CCC[C@]2(C)[C@H]3CC(=O)[C@]4(C)[C@@H](C=O)C(C=O)=CC[C@H]4[C@]3(C)CC[C@@H]12`, the IC50 in the assay with SK-OV-3 (setting [2]) is 41.6 µM; in the assay on SK-MEL (setting [3]), 14.6 µM; in the assay with BT-549 (setting [4]), 15.6 µM; in the assay with Vero (setting [5]) it was 18.2 µM; in the assay on Staphylococcus aureus (setting [7]), 27.8 µM; in assay [1], “Not Active”.
`CC(=O)O[C@@H]1OCC2[C@@H](OC(C)=O)C[C@H]3[C@]4(C)CC[C@H]5C(C)(C)CCC[C@]5(C)[C@H]4C[C@@H](O)[C@]3(C)[C@H]21` (some centres undefined): the concentration for half-maximal inhibition (IC50) is 18.3 µM with SK-OV-3 (setting [2]); > 37.3 µM with SK-MEL (setting [3]); 15.9 µM in the assay with BT-549 (setting [4]); 36.7 µM in the assay with Vero (setting [5]); “Not Active” in the assay with Staphylococcus aureus; “Not Active” in assay [1].
As to `CC1(C)CCC[C@]2(C)[C@H]3C[C@@H](O)[C@]4(C)C(CO)C(CO)=CC[C@H]4[C@]3(C)CC[C@@H]12` (some centres undefined), the 50% inhibitory concentration (IC50) entry (in the assay with SK-OV-3 (sk-ov-3); in the assay on SK-MEL (sk-mel); in the assay with BT-549 (bt-549); with Vero (vero); with Staphylococcus aureus; in assay [1]) was “Not Active” throughout.
Regarding `O=C(O)c1cn(C2CC2)c2cc(N3CCNCC3)c(F)cc2c1=O` [CIPROFLOXACIN], the IC50 in the assay on Staphylococcus aureus (setting [7]) was found to be 0.14 µM; in assay [1] (Mycobacterium intracellulare, ATCC 23068), 0.47 µM.
As for `CC(=O)O[C@@H]1C[C@@H]2[C@@]3(C)CCCC(C)(C)[C@@H]3CC[C@@]2(C)[C@@H]2CC=C3C(=O)O[C@@H](O)[C@@H]3[C@@]12C`, the 50% inhibitory concentration (IC50) result (in the assay on SK-OV-3 (sk-ov-3); in the assay on SK-MEL (sk-mel); in the assay on BT-549 (bt-549); in the assay on Vero (vero); in the assay on Staphylococcus aureus; in assay [1]) was “Not Active” throughout.
Take `CC1(C)CCC[C@]2(C)[C@H]3C[C@@H](O)[C@]4(C)[C@H](C=O)C(C=O)=CC[C@H]4[C@]3(C)CC[C@@H]12`: the half-maximal inhibitory concentration (IC50) in the assay on SK-OV-3 (setting [2]) was 19.4 µM; with SK-MEL (setting [3]), 18.6 µM; in the assay on BT-549 (setting [4]), 12.9 µM; with Vero (setting [5]), 20.7 µM; in the assay with Staphylococcus aureus (setting [7]) it was 3.8 µM; in assay [1], “Not Active”.
Consider `CC(=O)O[C@@H]1OC=C2[C@@H](OC(C)=O)C[C@H]3[C@]4(C)CC[C@H]5C(C)(C)CCC[C@]5(C)[C@H]4CC(=O)[C@]3(C)[C@H]21`, for which the half-maximal inhibitory concentration (IC50) in the assay on SK-OV-3 (setting [2]) was > 37.6 µM; in the assay with SK-MEL (sk-mel), “Not Active”; in the assay with BT-549 (setting [4]), > 37.6 µM; with Vero (setting [5]), > 37.6 µM; in the assay on Staphylococcus aureus it was “Not Active”; in assay [1] (setting [6]), 5.1 µM.
Consider `CC1(C)CCC[C@]2(C)[C@H]3C[C@@H](O)[C@]4(C)c5cocc5[C@@H](O)C[C@H]4[C@]3(C)CC[C@@H]12` [SESTERSTATIN 5], for which the 50% inhibitory concentration (IC50) entry (with SK-OV-3 (sk-ov-3); in the assay on SK-MEL (sk-mel); with BT-549 (bt-549); with Vero (vero); with Staphylococcus aureus; in assay [1]) was “Not Active” in each case.
In the case of `CO[C@@H]1C[C@H]2[C@]3(C)CC[C@H]4C(C)(C)CCC[C@]4(C)[C@H]3C[C@@H](O)[C@]2(C)c2cocc21` [16-O-METHYLSESTERSTATIN 4], the IC50 entry (in the assay with SK-OV-3 (sk-ov-3); with SK-MEL (sk-mel); in the assay on BT-549 (bt-549); in the assay with Vero (vero); with Staphylococcus aureus; in assay [1]) was “Not Active” each time.
As for `CC1(C)CCC[C@]2(C)[C@H]3C[C@@H](O)[C@]4(C)[C@H]5COC(=O)C5=CC[C@H]4[C@]3(C)CC[C@@H]12`, the half-maximal inhibitory concentration (IC50) result (in the assay on SK-OV-3 (sk-ov-3); with SK-MEL (sk-mel); with BT-549 (bt-549); in the assay on Vero (vero); in the assay on Staphylococcus aureus; in assay [1]) was “Not Active” each time.
For the molecule `CC1(C)CCC[C@]2(C)[C@H]3C[C@@H](O)[C@]4(C)c5cocc5C=C[C@H]4[C@]3(C)CC[C@@H]12`, the concentration for half-maximal inhibition (IC50) entry (with SK-OV-3 (sk-ov-3); with SK-MEL (sk-mel); in the assay on BT-549 (bt-549); in the assay on Vero (vero); in the assay on Staphylococcus aureus; in assay [1]) was “Not Active” in each case.
On to `CC1(C)CCC[C@]2(C)[C@H]3CC(=O)[C@]4(C)[C@H](C=O)C(C=O)=CC[C@H]4[C@]3(C)CC[C@@H]12`, for which the IC50 is 31.2 µM in the assay on SK-OV-3 (setting [2]); 14.3 µM in the assay with SK-MEL (setting [3]); 15.6 µM in the assay with BT-549 (setting [4]); 15.6 µM in the assay with Vero (setting [5]); 30.1 µM in the assay on Staphylococcus aureus (setting [7]); “Not Active” in assay [1].
Turning to `COc1cccc2c1C(=O)c1c(O)c3c(c(O)c1C2=O)C[C@@](O)(C(=O)CO)C[C@@H]3O[C@H]1C[C@H](N)[C@H](O)[C@H](C)O1` [DOXORUBICIN], the IC50 in the assay on SK-OV-3 (setting [2]) amounted to 0.8 µM; in the assay on SK-MEL (setting [3]), 1.2 µM; in the assay with BT-549 (setting [4]) it was 1.2 µM; with Vero (setting [5]), 6.3 µM.
As to `CO[C@@H]1O[C@@H](OC)[C@H]2C1=CC[C@H]1[C@]3(C)CC[C@H]4C(C)(C)CCC[C@]4(C)[C@H]3C[C@@H](O)[C@]21C`, the IC50 entry (in the assay on SK-OV-3 (sk-ov-3); in the assay on SK-MEL (sk-mel); in the assay on BT-549 (bt-549); with Vero (vero); in the assay with Staphylococcus aureus; in assay [1]) was “Not Active” each time.
With `CC(=O)O[C@@H]1OC=C2[C@@H](OC(C)=O)C[C@H]3[C@]4(C)CC[C@H]5C(C)(C)CCC[C@]5(C)[C@H]4C[C@@H](OC(C)=O)[C@]3(C)[C@H]21` [HETERONEMIN ACETATE], the IC50 is 18.8 µM with SK-OV-3 (setting [2]); 16.7 µM in the assay on SK-MEL (setting [3]); 18.8 µM in the assay with BT-549 (setting [4]); 9 µM in the assay on Vero (setting [5]); “Not Active” in the assay on Staphylococcus aureus; 18.8 µM in assay [1] (setting [6]).
Take `CC(=O)O[C@@H]1C[C@@H]2[C@@]3(C)CCCC(C)(C)[C@@H]3CC[C@@]2(C)[C@@H]2CC=C(C=O)[C@H](C=O)[C@@]12C`: the IC50 with SK-OV-3 (setting [2]) is 23.3 µM; in the assay on SK-MEL (setting [3]), > 42.7 µM; with BT-549 (setting [4]), 21 µM; with Vero (setting [5]), 22.2 µM; in the assay with Staphylococcus aureus (setting [7]), 6.3 µM; in assay [1], “Not Active”.

These data come from ChEMBL document CHEMBL1154214, “Scalarane sesterterpenoids: semisynthesis and biological activity” (J Nat Prod, 2009).
